Data published in paper PMC7856035 (Neuropharmacology, 2020).

Experiments:
[1] = biological target: T1, 5-HT4 receptor (Rattus norvegicus, UniProt Q62758); experiment: block of […] 5-HT-induced PKA-RII phosphorylation in rat DRG neurons; format: cell-based
[2] = biological target: T1, 5-HT4 receptor; experiment: agonist-induced PKA-RII phosphorylation in rat DRG neurons, reduced by GR113808; format: cell-based

T1 sequence (Q62758 whole entry): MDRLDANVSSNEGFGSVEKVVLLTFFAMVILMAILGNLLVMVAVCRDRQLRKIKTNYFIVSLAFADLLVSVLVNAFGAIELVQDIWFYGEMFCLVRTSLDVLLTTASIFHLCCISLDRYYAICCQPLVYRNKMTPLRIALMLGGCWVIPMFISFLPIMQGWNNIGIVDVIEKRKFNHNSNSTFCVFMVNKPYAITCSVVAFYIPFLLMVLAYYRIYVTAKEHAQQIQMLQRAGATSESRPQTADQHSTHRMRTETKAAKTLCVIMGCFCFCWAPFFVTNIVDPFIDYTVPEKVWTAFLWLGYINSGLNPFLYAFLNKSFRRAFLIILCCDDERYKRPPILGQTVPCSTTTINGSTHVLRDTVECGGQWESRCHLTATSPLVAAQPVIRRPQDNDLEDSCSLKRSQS

IC50 [1] [nM]	EC50 [2] [nM]	SMILES
5.55		Cn1cc(C(=O)OCC2CCN(CCNS(C)(=O)=O)CC2)c2ccccc21 [GR, GR113808]
	10.2	COCCCN1CCC(NC(=O)c2cc(Cl)c(N)c3c2OCC3)CC1 [Ppr, prucalopride]
